Data: patent US9242996B2 (Novartis AG, priority 2013, dated 2016)

Target: activated ERK2 (Homo sapiens (Human), UniProt P28482)
Assay: Activated ERK2 kinase assay, ERK2 New conditions (AlphaScreen, ERKtide phosphorylation)
Assay type: biochemical
Details: 0.25 nM ERK2, 200 nM ERKtide peptide, 35 μM ATP, 30 min preincubation
Procedure: The assay is carried out in 50 mM HEPES [pH 7.5], 5 mM MgCl2, 1 mM DTT, 0.01% Tween-20, 0.05% BSA using 0.25 nM ERK2, 200 nM ERKtide peptide and 35 μM ATP (all concentrations are final in the reaction) in a total volume of 10.25 μL. […] Compound dilution series are prepared in 100% DMSO. ERK2 is preincubated with compounds for 30 minutes at ambient temperature. Reaction is initiated by addition of a substrate cocktail of ERKtide peptide and ATP and is allowed to proceed for 2-3 hours at ambient temperature. Reaction is terminated by addition of 10 μL of a 2× stop buffer consisting of 100 mM Tris-Cl [pH 7.5], 25 mM EDTA, 0.01% Tween 20, 10 μg/mL of AlphaScreen Protein A Acceptor Beads, 10 μg/mL of Streptavidin Donor Beads (PerkinElmer, Waltham, Mass.), and 1.4 μg/mL phospho-EGF Receptor (Thr669) antibody (Cat #3056, Cell Signaling Technology, Danvers, Mass.). Terminated reactions are read, after overnight incubation in the dark, on an EnVision Multilabel Plate Reader (PerkinElmer, Waltham, Mass.), with excitation and emission wavelengths set to 680 nm and 570 nm, respectively. IC50 values are determined using a four-parameter fit.

activated ERK2, sequence (P28482 whole entry): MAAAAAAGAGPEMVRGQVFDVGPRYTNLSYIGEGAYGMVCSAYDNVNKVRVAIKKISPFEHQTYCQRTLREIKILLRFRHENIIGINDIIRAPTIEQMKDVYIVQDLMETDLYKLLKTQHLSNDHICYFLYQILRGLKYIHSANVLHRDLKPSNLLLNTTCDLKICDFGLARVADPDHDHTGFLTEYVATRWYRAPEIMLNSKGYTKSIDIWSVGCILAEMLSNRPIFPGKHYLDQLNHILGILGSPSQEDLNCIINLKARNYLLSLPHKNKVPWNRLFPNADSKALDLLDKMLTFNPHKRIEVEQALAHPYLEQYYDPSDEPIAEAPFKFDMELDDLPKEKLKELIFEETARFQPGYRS

Question: Which IC50 does the source give for `COC(=O)N1CCC(c2cnc(N)c(-c3ccc(C(=O)N[C@H](CO)c4ccccc4)c(F)c3)n2)CC1` [Example 58, (S)-methyl 4-(5-amino-6-(3-fluoro-4-((2-hydroxy-1-phenylethyl)carbamoyl)phenyl)pyrazin-2-yl)piperidine-1-carboxylate] here?
Answer: 3.61 nM

Question: Which IC50 does the source give for `COC(=O)N1CCC(c2cnc(N)c(-c3ccc(C(=O)N[C@H](CO)c4cccc(Cl)c4)c(F)c3)n2)CC1` [Example 59, (S)-methyl 4-(5-amino-6-(4-((1-(3-chlorophenyl)-2-hydroxyethyl)carbamoyl)-3-fluorophenyl)pyrazin-2-yl)piperidine-1-carboxylate] here?
Answer: 0.35 nM

Question: With `CC(=O)N1CCC(c2cnc(N)c(-c3ccc(C(=O)N[C@H](CO)c4ccccc4)c(F)c3)n2)CC1` [Example 60, (S)-4-(6-(1-acetylpiperidin-4-yl)-3-aminopyrazin-2-yl)-2-fluoro-N-(2-hydroxy-1-phenylethyl)benzamide] as the compound, how does the IC50 read?
Answer: 12.4 nM

Question: With `CC(=O)N1CCC(c2cnc(N)c(-c3ccc(C(=O)N[C@H](CO)c4cccc(Cl)c4)c(F)c3)n2)CC1` [Example 61, (S)-4-(6-(1-acetylpiperidin-4-yl)-3-aminopyrazin-2-yl)-N-(1-(3-chlorophenyl)-2-hydroxyethyl)-2-fluorobenzamide] as the compound, how does the IC50 read?
Answer: 1.24 nM

Question: Which IC50 does the source give for `COC(=O)N1CCC(c2cnc(N)c(-c3ccc(C(=O)N[C@H](CO)c4ccccc4)c(F)c3)c2)C1` (stereo partly drawn) [Example 62, methyl 3-(6-amino-5-(3-fluoro-4-(((S)-2-hydroxy-1-phenylethyl)carbamoyl)phenyl)pyridin-3-yl)pyrrolidine-1-carboxylate] here?
Answer: 64.1 nM

Question: How did the IC50 turn out when `CS(=O)(=O)N1CCC(c2cnc(N)c(-c3ccc(C(=O)N[C@H](CO)c4ccccc4)c(F)c3)c2)C1` (stereo partly drawn) [Example 63, 4-(2-amino-5-(1-(methylsulfonyl)pyrrolidin-3-yl)pyridin-3-yl)-2-fluoro-N-((S)-2-hydroxy-1-phenylethyl)benzamide] was run?
Answer: 23.3 nM

Question: `CCOCCc1cnc(N)c(-c2ccc(C(=O)N[C@H](CO)c3ccccc3)c(F)c2)n1` [Example 72, (S)-4-(3-amino-6-(2-ethoxyethyl)pyrazin-2-yl)-2-fluoro-N-(2-hydroxy-1-phenylethyl)benzamide] was tested. Which IC50 did it give?
Answer: 177 nM

Question: Which IC50 does the source give for `Nc1ncc(C2CCS(=O)(=O)CC2)cc1-c1ccc(C(=O)NCc2ccccc2)c(F)c1` [Example 78, 4-(2-amino-5-(1,1-dioxidotetrahydro-2H-thiopyran-4-yl)pyridin-3-yl)-N-benzyl-2-fluorobenzamide] here?
Answer: 172 nM

Question: Which IC50 does the source give for `CS(=O)(=O)c1cccc(CNC(=O)c2ccc(-c3nc(C4CC4)cnc3N)cc2F)c1` [Example 99, 4-(3-amino-6-cyclopropylpyrazin-2-yl)-2-fluoro-N-(3-(methylsulfonyl)benzyl)benzamide] here?
Answer: 12.1 nM

Question: For `C[C@@H]1C[C@H](c2cnc(N)c(-c3ccc(C(=O)NCc4cccc(S(C)(=O)=O)c4)cc3)n2)CCO1` [Example 100, 4-(3-amino-6-((2R,4R)-2-methyltetrahydro-2H-pyran-4-yl)pyrazin-2-yl)-N-(3-(methylsulfonyl)benzyl)benzamide], which IC50 is on record?
Answer: 7.76 nM

Question: Which IC50 does the source give for `C[C@H]1C[C@@H](c2cnc(N)c(-c3ccc(C(=O)NCc4cccc(S(C)(=O)=O)c4)cc3)n2)CCO1` [Example 101, 4-(3-amino-6-((2S,4S)-2-methyltetrahydro-2H-pyran-4-yl)pyrazin-2-yl)-N-(3-(methylsulfonyl)benzyl)benzamide] here?
Answer: 76.9 nM

Question: Which IC50 does the source give for `COC1CCC(c2cnc(N)c(-c3ccc(C(=O)NCc4ccccc4)c(F)c3)n2)C1` (centres unmarked) [Example 104, 4-(3-amino-6-(3-methoxycyclopentyl)pyrazin-2-yl)-N-benzyl-2-fluorobenzamide] here?
Answer: 191 nM

Question: For `Cn1cc(-c2cnc(N)c(-c3ccc(C(=O)N[C@H](CO)c4ccccc4)c(F)c3)c2)cn1` [Example 107, (S)-4-(2-amino-5-(1-methyl-1H-pyrazol-4-yl)pyridin-3-yl)-2-fluoro-N-(2-hydroxy-1-phenylethyl)benzamide], which IC50 is on record?
Answer: 1.16 nM

Question: With `Nc1ncc(C2CCOCC2)nc1-c1ccc2c(c1)OCCN(Cc1ccccc1)C2=O` [Example 109, 8-(3-amino-6-(tetrahydro-2H-pyran-4-yl)pyrazin-2-yl)-4-benzyl-3,4-dihydrobenzo[f][1,4]oxazepin-5(2H)-one] as the compound, how does the IC50 read?
Answer: 5.81 nM

Question: For `Nc1ncc(C2CCS(=O)(=O)CC2)cc1-c1ccc2c(c1)OCCN(Cc1ccccc1)C2=O` [Example 110, 8-(2-amino-5-(1,1-dioxidotetrahydro-2H-thiopyran-4-yl)pyridin-3-yl)-4-benzyl-3,4-dihydrobenzo[f][1,4]oxazepin-5(2H)-one], which IC50 is on record?
Answer: 1000 nM

Question: How did the IC50 turn out when `Nc1ncc(CCO)nc1-c1ccc(C(=O)N[C@H](CO)c2ccccc2)c(F)c1` [Example 111, (S)-4-(3-amino-6-(2-hydroxyethyl)pyrazin-2-yl)-2-fluoro-N-(2-hydroxy-1-phenylethyl)benzamide] was run?
Answer: 30.8 nM

Question: For `COCCc1cnc(N)c(-c2ccc(C(=O)N[C@H](CO)c3ccccc3)c(F)c2)n1` [Example 112, (S)-4-(3-amino-6-(2-methoxyethyl)pyrazin-2-yl)-2-fluoro-N-(2-hydroxy-1-phenylethyl)benzamide], which IC50 is on record?
Answer: 141 nM

Question: Which IC50 does the source give for `Nc1ncc(C2CCOCC2)cc1-c1ccc(C(=O)N[C@@H]2CCCN(Cc3ccccc3F)C2)c(F)c1` [Example 113, (R)-4-(2-amino-5-(tetrahydro-2H-pyran-4-yl)pyridin-3-yl)-2-fluoro-N-(1-(2-fluorobenzyl)piperidin-3-yl)benzamide] here?
Answer: 780 nM

Question: For `N#CCCc1cnc(N)c(-c2ccc(C(=O)N[C@H](CO)c3ccccc3)c(F)c2)n1` [Example 114, (S)-4-(3-amino-6-(2-cyanoethyl)pyrazin-2-yl)-2-fluoro-N-(2-hydroxy-1-phenylethyl)benzamide], which IC50 is on record?
Answer: 124 nM

Question: For `Nc1ncc(C2CCOCC2)nc1-c1ccc(C(=O)N[C@H]2CCCN(Cc3ccccc3F)C2)c(F)c1` [Example 125, (S)-4-(3-amino-6-(tetrahydro-2H-pyran-4-yl)pyrazin-2-yl)-2-fluoro-N-(1-(2-fluorobenzyl)piperidin-3-yl)benzamide], which IC50 is on record?
Answer: 2230 nM

Question: `Nc1ncc(C2CCOCC2)nc1-c1ccc(C(=O)N[C@@H]2CCCN(Cc3ccccc3F)C2)c(F)c1` [Example 126, (R)-4-(3-amino-6-(tetrahydro-2H-pyran-4-yl)pyrazin-2-yl)-2-fluoro-N-(1-(2-fluorobenzyl)piperidin-3-yl)benzamide] was tested. Which IC50 did it give?
Answer: 169 nM

Question: Which IC50 does the source give for `Cn1cc(-c2cnc(N)c(-c3ccc(C(=O)N[C@H](CO)c4cccc(Cl)c4)c(F)c3)c2)nn1` [Example 128, (S)-4-(2-amino-5-(1-methyl-1H-1,2,3-triazol-4-yl)pyridin-3-yl)-N-(1-(3-chlorophenyl)-2-hydroxyethyl)-2-fluorobenzamide] here?
Answer: 0.835 nM

Question: For `Nc1ncc(-c2ccc(=O)[nH]c2)nc1-c1ccc(C(=O)N[C@H](CO)c2ccccc2)cc1` [Example 129, (S)-4-(3-amino-6-(6-oxo-1,6-dihydropyridin-3-yl)pyrazin-2-yl)-N-(2-hydroxy-1-phenylethyl)benzamide], which IC50 is on record?
Answer: 2.02 nM

Question: Which IC50 does the source give for `N#CCc1cnc(N)c(-c2ccc(C(=O)N[C@H](CO)c3ccccc3)c(F)c2)c1` [Example 134, (S)-4-(2-amino-5-(cyanomethyl)pyridin-3-yl)-2-fluoro-N-(2-hydroxy-1-phenylethyl)benzamide] here?
Answer: 202 nM

Question: For `Nc1ncc([C@@H]2CCOC2)nc1-c1ccc(C(=O)N[C@H](CO)c2ccccc2)cc1` [Example 136, 4-(3-amino-6-((S)-tetrahydrofuran-3-yl)pyrazin-2-yl)-N—((S)-2-hydroxy-1-phenylethyl)benzamide], which IC50 is on record?
Answer: 4.51 nM

Question: `Nc1ncc([C@H]2CCOC2)nc1-c1ccc(C(=O)N[C@H](CO)c2ccccc2)cc1` [Example 137, 4-(3-amino-6-((R)-tetrahydrofuran-3-yl)pyrazin-2-yl)-N—((S)-2-hydroxy-1-phenylethyl)benzamide] was tested. Which IC50 did it give?
Answer: 31 nM

Question: Which IC50 does the source give for `Nc1ncc(-c2ccoc2)nc1-c1ccc(C(=O)N[C@H](CO)c2ccccc2)cc1` [Example 138] here?
Answer: 13.3 nM

Question: For `Cc1cnccc1-c1cnc(N)c(-c2ccc(C(=O)NCc3cccc(S(C)(=O)=O)c3)cc2)n1` [Example 139, 4-(3-amino-6-(3-methylpyridin-4-yl)pyrazin-2-yl)-N-(3-(methylsulfonyl)benzyl)benzamide], which IC50 is on record?
Answer: 7.95 nM

Question: How did the IC50 turn out when `Cn1cncc1-c1cnc(N)c(-c2ccc(C(=O)N[C@H](CO)c3ccccc3)c(F)c2)c1` [Example 140, (S)-4-(2-amino 5-(1-methyl-1H-imidazol-5-yl)pyridin-3-yl)-2-fluoro-N-(2-hydroxy-1-phenylethyl)benzamide] was run?
Answer: 1.41 nM

Question: Which IC50 does the source give for `Cn1nncc1-c1cnc(N)c(-c2cc(F)c(C(=O)N[C@H](CO)c3cccc(Cl)c3)c(F)c2)c1` [Example 141, (S)-4-(2-amino-5-(1-methyl-1H-1,2,3-triazol-5-yl)pyridin-3-yl)-N-(1-(3-chlorophenyl)-2-hydroxyethyl)-2,6-difluorobenzamide] here?
Answer: 0.183 nM

Question: Which IC50 does the source give for `Nc1ncc(-c2ccnnc2)nc1-c1ccc(C(=O)N[C@H](CO)c2ccccc2)c(F)c1` [Example 144, (S)-4-(3-amino-6-(pyridazin-4-yl)pyrazin-2-yl)-2-fluoro-N-(2-hydroxy-1-phenylethyl)benzamide] here?
Answer: 1.18 nM

Question: Which IC50 does the source give for `Cn1cc(-c2cnc(N)c(-c3ccc(C(=O)N[C@H](CO)c4ccccc4)cc3)n2)cn1` [Example 146, (S)-4-(3-amino-6-(1-methyl-1H-pyrazol-4-yl)pyrazin-2-yl)-N-(2-hydroxy-1-phenylethyl)benzamide] here?
Answer: 3.39 nM
